Results published in publication PMC5775429, “LY2087101 and dFBr share transmembrane binding sites in the (α4)3(β2)2 Nicotinic Acetylcholine Receptor” (Scientific Reports, 2018).
Where “and” joins values, the source holds several entries; their conditions need not be identical. Equal values may be shown once.

Key:
Assay in all cases: Two-electrode voltage-clamp of ACh-induced currents in Xenopus oocytes
Format in all cases: cell-based
(α4)3(β2)2 nAChR = biological target: T1, (α4)3(β2)2 nAChR (Homo sapiens, UniProt P17787+P43681)
T1 construct: expressed in transfected cells; host or cells: Xenopus laevis oocytes injected with cRNA
T1 sequence (P43681 29-627 limits assumed): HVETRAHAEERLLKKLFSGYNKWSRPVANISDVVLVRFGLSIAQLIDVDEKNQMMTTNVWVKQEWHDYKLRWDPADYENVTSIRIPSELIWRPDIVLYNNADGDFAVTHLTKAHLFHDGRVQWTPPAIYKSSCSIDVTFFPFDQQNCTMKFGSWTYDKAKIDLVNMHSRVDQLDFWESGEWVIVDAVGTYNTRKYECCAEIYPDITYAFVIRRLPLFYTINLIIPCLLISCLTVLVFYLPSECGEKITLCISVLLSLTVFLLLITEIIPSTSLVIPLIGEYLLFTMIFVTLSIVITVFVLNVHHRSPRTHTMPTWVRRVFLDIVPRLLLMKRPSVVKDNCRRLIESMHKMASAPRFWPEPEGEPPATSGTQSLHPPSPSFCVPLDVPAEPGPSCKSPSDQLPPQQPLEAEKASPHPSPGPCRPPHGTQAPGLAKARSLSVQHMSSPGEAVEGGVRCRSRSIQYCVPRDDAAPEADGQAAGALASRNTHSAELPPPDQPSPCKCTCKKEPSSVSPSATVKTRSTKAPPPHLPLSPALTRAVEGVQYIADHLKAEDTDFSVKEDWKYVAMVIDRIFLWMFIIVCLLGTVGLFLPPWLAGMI
T1 sequence (P17787 26-502): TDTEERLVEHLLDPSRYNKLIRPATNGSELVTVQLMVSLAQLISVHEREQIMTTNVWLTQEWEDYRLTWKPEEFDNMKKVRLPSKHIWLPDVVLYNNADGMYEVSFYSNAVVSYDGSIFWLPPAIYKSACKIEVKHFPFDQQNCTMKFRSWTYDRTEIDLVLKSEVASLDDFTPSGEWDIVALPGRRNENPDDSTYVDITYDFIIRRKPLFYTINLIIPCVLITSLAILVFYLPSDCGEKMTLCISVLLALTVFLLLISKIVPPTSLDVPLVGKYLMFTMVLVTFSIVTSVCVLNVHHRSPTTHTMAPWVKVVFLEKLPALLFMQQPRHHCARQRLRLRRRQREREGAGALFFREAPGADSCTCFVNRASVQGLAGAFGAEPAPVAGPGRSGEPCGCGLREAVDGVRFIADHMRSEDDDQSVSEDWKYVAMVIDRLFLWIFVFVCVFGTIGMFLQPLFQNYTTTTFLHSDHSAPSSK
Procedure: To begin to characterize LY2087101 interaction with the heteropentameric α4β2 nAChRs, we examined the selectivity of LY2087101 for the two α4β2 nAChR isoforms; high-agonist sensitivity (α4)2(β2)3 and low-agonist sensitivity (α4)3(β2)2 nAChRs. Xenopus oocytes were injected with α4 and β2 subunits RNAs at ratios 8:1 and 1:8 to favor expression of (α4)3(β2)2 and (α4)2(β2)3 nAChRs, respectively.
(§1) Ovarian lobules were surgically harvested from oocytes-positive female Xenopus laevis (NASCO, Fort Atkinson, WI) according to an animal use protocol approved by the Texas A&M Health Sciences Center Institutional Animals Care and Use Committee. The Texas A&M Health Sciences Center Research Facility is registered as an animal research facility with the United States Department of Agriculture and is fully accredited by the American Association for Accreditation of Laboratory Animal Care (AAALAC). For oocytes defolliculation, ovarian lobes were treated with 3 mg/ml collagenase type 2 (Worthington Biomedical, Lakewood, NJ) in Ca + 2-free buffer (85 mM NaCl, 2.5 mM KCl, 1 mM MgCl2, 5 mM HEPES, pH 7.6). Collagenase treatment was allowed to proceed for 3 hours at room temperature with gentle shaking then oocytes were washed several times with buffer to remove collagenase then with ND96-gentamicine buffer. Healthy Stage V and VI oocytes were visually selected and maintained at 18 °C in modified ND96-gentamicine buffer (96 mM NaCl, 2 mM KCl, 1.8 mM CaCl2, 1 mM MgCl2, 5 mM HEPES, 50 µg/ml gentamicin, pH 7.6). Oocytes were injected with 50–100 ng of the desired nAChR subunits cRNA mix at ratios of 8α:1β or 1α:8β to express nAChRs with subunit stoichiometries of 3α:2β (low agonist sensitivity) or 2α:3β (high agonist sensitivity), respectively.
(§2) Oocytes were continuously perfused with recording buffer (100 mM NaCl, 2 mM KCl, 1 mM CaCl2, 0.8 mM MgCl2, 1 mM EGTA, 10 mM Hepes, pH 7.5) except during periods of drug applications.

(α4V609A)3(β2)2 nAChR = biological target: T2, (α4V609A)3(β2)2 nAChR (Homo sapiens, UniProt P17787+P43681, V609A)
T2 construct: expressed in transfected cells; host or cells: Xenopus laevis oocytes injected with cRNA
T2 sequence (P43681 29-627 V609A limits assumed): as the sequence (P43681 29-627 limits assumed) above, with V581A counted along it
T2 sequence (P17787 26-502): as the sequence (P17787 26-502) above
Procedure: (§3) For amino acid substitutions within the α4 nAChR subunit, point mutations were introduced into pSP64ployA plasmid with cDNA encoding for human α4 nAChR subunit with mutagenic primer pairs using the Quick Change II Site-Directed Mutagenesis Kit (Agilent Technologies) then confirmed by DNA sequencing (GENEWIZ, LLC, South Plainfield, NJ). cRNA transcripts suitable for oocyte expression were prepared in vitro from linearized plasmids [α3 (BamH1), α4 (AseI), β2 (PvuII), β4 (XhoI)] using mMESSAGE mMACHINE high yield capped RNA transcription kits (Ambion) and purified on NucAway Spin column (Invitrogen). cRNA concentration was determined by spectroscopy (Concentration (ug/ul) = Abs260 * 40), aliquoted and stored at −80 °C until used.
as §1, §2

(α4C254S)3(β2)2 nAChR = biological target: T3, (α4C254S)3(β2)2 nAChR (Homo sapiens, UniProt P17787+P43681, C254S)
T3 construct: expressed in transfected cells; host or cells: Xenopus laevis oocytes injected with cRNA
T3 sequence (P43681 29-627 C254S limits assumed): as the sequence (P43681 29-627 limits assumed) above, with C226S counted along it
T3 sequence (P17787 26-502): as the sequence (P17787 26-502) above
Procedure: as §3, §1, §2

(α4I315A)3(β2)2 nAChR = biological target: T4, (α4I315A)3(β2)2 nAChR (Homo sapiens, UniProt P17787+P43681, I315A)
T4 construct: expressed in transfected cells; host or cells: Xenopus laevis oocytes injected with cRNA
T4 sequence (P43681 29-627 I315A limits assumed): as the sequence (P43681 29-627 limits assumed) above, with I287A counted along it
T4 sequence (P17787 26-502): as the sequence (P17787 26-502) above
Procedure: as §3, §1, §2

(α4T313C)3(β2)2 nAChR = biological target: T5, (α4T313C)3(β2)2 nAChR (Homo sapiens, UniProt P17787+P43681, T313C)
T5 construct: expressed in transfected cells; host or cells: Xenopus laevis oocytes injected with cRNA
T5 sequence (P43681 29-627 T313C limits assumed): as the sequence (P43681 29-627 limits assumed) above, with T285C counted along it
T5 sequence (P17787 26-502): as the sequence (P17787 26-502) above
Procedure: as §3, §1, §2

(α4F312V)3(β2)2 nAChR = biological target: T6, (α4F312V)3(β2)2 nAChR (Homo sapiens, UniProt P17787+P43681, F312V)
T6 construct: expressed in transfected cells; host or cells: Xenopus laevis oocytes injected with cRNA
T6 sequence (P43681 29-627 F312V limits assumed): as the sequence (P43681 29-627 limits assumed) above, with F284V counted along it
T6 sequence (P17787 26-502): as the sequence (P17787 26-502) above
Procedure: as §3, §1, §2

(α4I608L)3(β2)2 nAChR = biological target: T7, (α4I608L)3(β2)2 nAChR (Homo sapiens, UniProt P17787+P43681, I608L)
T7 construct: expressed in transfected cells; host or cells: Xenopus laevis oocytes injected with cRNA
T7 sequence (P43681 29-627 I608L limits assumed): as the sequence (P43681 29-627 limits assumed) above, with I580L counted along it
T7 sequence (P17787 26-502): as the sequence (P17787 26-502) above
Procedure: as §3, §1, §2

(α4M605V)3(β2)2 nAChR = biological target: T8, (α4M605V)3(β2)2 nAChR (Homo sapiens, UniProt P17787+P43681, M605V)
T8 construct: expressed in transfected cells; host or cells: Xenopus laevis oocytes injected with cRNA
T8 sequence (P43681 29-627 M605V limits assumed): as the sequence (P43681 29-627 limits assumed) above, with M577V counted along it
T8 sequence (P17787 26-502): as the sequence (P17787 26-502) above
Procedure: as §3, §1, §2

(α4S258M)3(β2)2 nAChR = (α4S258M)3(β2)2 nAChR (Homo sapiens, UniProt P43681, S258M)
Chain of (α4S258M)3(β2)2 nAChR (P43681 29-627 S258M limits assumed): as the sequence (P43681 29-627 limits assumed) above, with S230M counted along it
Chain of (α4S258M)3(β2)2 nAChR (P17787 26-502 partner): as the sequence (P17787 26-502) above
Procedure: as §3, §1, §2

(α4S284G)3(β2)2 nAChR = biological target: T9, (α4S284G)3(β2)2 nAChR (Homo sapiens, UniProt P17787+P43681, S284G)
T9 construct: expressed in transfected cells; host or cells: Xenopus laevis oocytes injected with cRNA
T9 sequence (P43681 29-627 S284G limits assumed): as the sequence (P43681 29-627 limits assumed) above, with S256G counted along it
T9 sequence (P17787 26-502, stated change not applied): as the sequence (P17787 26-502) above
Procedure: as §3, §1, §2

(α4L310F)3(β2)2 nAChR = biological target: T10, (α4L310F)3(β2)2 nAChR (Homo sapiens, UniProt P17787+P43681, L310F)
T10 construct: expressed in transfected cells; host or cells: Xenopus laevis oocytes injected with cRNA
T10 sequence (P43681 29-627 L310F limits assumed): as the sequence (P43681 29-627 limits assumed) above, with L282F counted along it
T10 sequence (P17787 26-502): as the sequence (P17787 26-502) above
Procedure: as §3, §1, §2

[1] = ACh concentration-response curve, normalized to 1 mM ACh alone
[2] = 10 µM ACh + 1 µM PAM vs 10 µM ACh alone
[3] = read-out: LY2087101 potentiation EC50
[4] = normalized to peak current by 10 µM ACh alone, curve fit
[5] = normalized to 10 µM ACh alone, not from curve fitting, maximum seen at any concentration up to 10 µM LY2087101

Compound: Cc1nc(Nc2ccc(F)cc2)sc1C(=O)c1ccsc1 [LY2087101, [2-[(4-Fluorophenyl)amino]-4-methyl-5-thiazolyl]-3-thienylmethanone]
- R, potentiation ratio (PR) ((α4)3(β2)2 nAChR; 10 µM ACh + 1 µM PAM vs 10 µM ACh alone, WT): 4.1 ± 0.3
- ACh Imax in the presence of 1 µM LY2087101 ((α4)3(β2)2 nAChR; [1]): 251 ± 19% and ~ 250%
- EC50 ((α4)3(β2)2 nAChR; co-applied with 10 µM ACh, LS WT, read-out: LY2087101 potentiation EC50): 1400 nM and 1000 to 2000 nM
- R, potentiation ratio (PR) ((α4V609A)3(β2)2 nAChR; [2]): 5.7 ± 1.1
- EC50 ((α4V609A)3(β2)2 nAChR; [3]): 1000 ± 300 nM
- R, potentiation ratio (PR) ((α4C254S)3(β2)2 nAChR; [2]): 8.4 ± 1.5
- ACh Imax in the presence of 1 µM LY2087101 ((α4C254S)3(β2)2 nAChR; [1]): 185 ± 04%
- EC50 ((α4C254S)3(β2)2 nAChR; [3]): 1700 ± 200 nM
- R, potentiation ratio (PR) ((α4I315A)3(β2)2 nAChR; [2]): 2.5 ± 0.2
- LY2087101 potentiation Imax% ((α4I315A)3(β2)2 nAChR; [4]): 405 ± 5%
- EC50 ((α4I315A)3(β2)2 nAChR; [3]): 1200 ± 500 nM
- R, potentiation ratio (PR) ((α4T313C)3(β2)2 nAChR; [2]): 2.1 ± 0.2
- LY2087101 potentiation Imax% ((α4T313C)3(β2)2 nAChR; [4]): 196 ± 23%
- EC50 ((α4T313C)3(β2)2 nAChR; [3]): 700 ± 100 nM
- R, potentiation ratio (PR) ((α4F312V)3(β2)2 nAChR; [2]): 2.5 ± 0.2
- LY2087101 potentiation Imax% ((α4F312V)3(β2)2 nAChR; [5]): 269 ± 43%
- EC50 ((α4F312V)3(β2)2 nAChR; [3]): 100 ± 10 nM
- R, potentiation ratio (PR) ((α4I608L)3(β2)2 nAChR; [2]): 4.4 ± 0.6
- LY2087101 potentiation Imax% ((α4I608L)3(β2)2 nAChR; [4]): 840 ± 31%
- EC50 ((α4I608L)3(β2)2 nAChR; [3]): 1200 ± 100 nM
- R, potentiation ratio (PR) ((α4M605V)3(β2)2 nAChR; [2]): 3.8 ± 1.1
- LY2087101 potentiation Imax% ((α4M605V)3(β2)2 nAChR; [4]): 856 ± 3%
- EC50 ((α4M605V)3(β2)2 nAChR; [3]): 2700 ± 20 nM
- R, potentiation ratio (PR) ((α4S258M)3(β2)2 nAChR; [2]): 1.5 ± 0.2
- ACh Imax in the presence of 1 µM LY2087101 ((α4S258M)3(β2)2 nAChR; [1]): 232 ± 10%
- LY2087101 potentiation Imax% ((α4S258M)3(β2)2 nAChR; [5]): 254 ± 12%
- R, potentiation ratio (PR) ((α4S284G)3(β2)2 nAChR; [2]): 3.8 ± 0.4
- LY2087101 potentiation Imax% ((α4S284G)3(β2)2 nAChR; [4]): 537 ± 20%
- EC50 ((α4S284G)3(β2)2 nAChR; [3]): 700 ± 100 nM
- R, potentiation ratio (PR) ((α4L310F)3(β2)2 nAChR; [2]): 9.8 ± 1.0
- EC50 ((α4L310F)3(β2)2 nAChR; [3]): 3100 ± 100 nM
